From patent US9850283B2, “Macrocyclic inhibitors of the PD-1/PD-L1 and CD80(B7-1)/PD-L1 protein/protein interactions” (BRISTOL-MYERS SQUIBB COMPANY, priority 2013, dated 2017)
Positions of bridges follow the written chain, without caps; N, C: chain ends. Non-standard residues stand in square brackets, D forms with d. Residues, ends and D or L forms follow the SMILES beside them. Ala(benzothiazol-2-yl) = N[C@@H](Cc1nc2ccccc2s1)C(=O)O; Trp(1-Me) = Cn1cc(C[C@H](N)C(=O)O)c2ccccc21; Bta = N[C@@H](Cc1csc2ccccc12)C(=O)O; cisHyp = O=C(O)[C@@H]1C[C@H](O)CN1; Hyp = O=C(O)[C@@H]1C[C@@H](O)CN1; NMeNle = CCCC[C@H](NC)C(=O)O; NMeA = CN[C@@H](C)C(=O)O; Orn = NCCC[C@H](N)C(=O)O; Dab = NCC[C@H](N)C(=O)O; Dap = NC[C@H](N)C(=O)O

Tests used:
Human PD-L1/PD-1 = biological target: T1, Human PD-L1/PD-1 (Homo sapiens, UniProt Q9NZQ7); experiment: HTRF PD-1-Ig/PD-L1-His binding assay (human PD-L1); conditions: cluster symbol; read-out: HTRF IC50 cluster
T1 construct: made in house; host or cells: HEK293T
T1 sequence (Q9NZQ7 with tags, fused parts or gaps): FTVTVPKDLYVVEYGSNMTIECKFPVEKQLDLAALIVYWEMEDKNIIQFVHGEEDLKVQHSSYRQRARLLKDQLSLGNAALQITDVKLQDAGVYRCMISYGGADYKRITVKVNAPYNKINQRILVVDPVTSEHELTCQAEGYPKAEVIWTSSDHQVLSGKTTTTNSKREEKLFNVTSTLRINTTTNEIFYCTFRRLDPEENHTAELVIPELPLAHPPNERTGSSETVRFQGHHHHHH
Procedure, shortened: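 Readout: time-resolved FRET between Eu cryptate-labeled anti-Ig (1 nM final) and APC-labeled anti-His (20 nM final) antibodies. These detect interaction of Fc-fused PD-1 with His-tagged human PD-L1 in dPBS containing 0.1% BSA and 0.05% Tween-20.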

[1] = biological target: T2, LK35.2-hPD-L1 cells / PE-labeled PD-1-Ig (Homo sapiens, UniProt Q9NZQ7); experiment: LK35.2-hPD-L1 cell binding high-content screening assay; type: cell-based; conditions: cluster symbol; cell line of CBA not given (LK35.2-hPD-L1 or 293T-hPD-L1); read-out: CBA IC50 cluster
T2 construct: expressed in transfected cells; host or cells: LK35.2 mouse B cell line
T2 sequence (Q9NZQ7 19-290): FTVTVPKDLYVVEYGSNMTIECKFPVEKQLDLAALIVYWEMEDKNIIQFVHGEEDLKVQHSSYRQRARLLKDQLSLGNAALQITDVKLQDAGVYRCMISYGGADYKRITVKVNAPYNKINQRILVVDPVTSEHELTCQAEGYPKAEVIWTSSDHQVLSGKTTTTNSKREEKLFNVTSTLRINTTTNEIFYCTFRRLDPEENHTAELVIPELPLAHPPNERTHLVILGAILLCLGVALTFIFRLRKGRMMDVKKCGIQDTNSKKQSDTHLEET
Procedure, shortened: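 Compound effect on PD-1/PD-L1 binding is measured by imaging cell-associated phycoerythrin signal. Human PD-1-Ig (PE on Ig tag, 1 nM final) is applied with compound to a murine B cell line overexpressing human PD-L1 for 1 h at 37 °C in serum-containing RPMI.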

| Compound | IC50 (Human PD-L1/PD-1) | IC50 [1] |
| --- | --- | --- |
| CCCC[C@H]1C(=O)N(C)[C@@H](CCCC)C(=O)N[C@@H](CCCNC(=N)N)C(=O)N[C@H](C(=O)NCC(N)=O)CSCC(=O)N[C@@H](Cc2ccc(O)cc2)C(=O)N(C)[C@@H](C)C(=O)N[C@@H](CC(N)=O)C(=O)N2CCC[C@H]2C(=O)N[C@@H](Cc2cnc[nH]2)C(=O)N[C@@H](CC(C)C)C(=O)N2CCC[C@H]2C(=O)N[C@@H](Cc2c[nH]c3ccccc23)C(=O)N[C@@H](CO)C(=O)N[C@@H](Cc2nc3ccccc3s2)C(=O)N1C [Example 1129] ({CH2CO}-Y[NMeA]NPHLPWS[Ala(benzothiazol-2-yl)][NMeNle][NMeNle]RCG-NH2; thioether N-14) | > 30.5 nM | > 74.3 nM |
| CCCC[C@H]1C(=O)N(C)[C@@H](CCCC)C(=O)N[C@@H](CCCNC(=N)N)C(=O)N[C@H](C(=O)NCC(N)=O)CSCC(=O)N[C@@H](Cc2ccc(O)cc2)C(=O)N(C)[C@@H](C)C(=O)N[C@@H](CC(N)=O)C(=O)N2CCC[C@H]2C(=O)N[C@@H](Cc2cnc[nH]2)C(=O)N[C@@H](CC(C)C)C(=O)N2CCC[C@H]2C(=O)N[C@@H](Cc2c[nH]c3ccccc23)C(=O)N[C@@H](CO)C(=O)N[C@@H](Cc2cn(C)c3ccccc23)C(=O)N1C [Example 1130] ({CH2CO}-Y[NMeA]NPHLPWS[Trp(1-Me)][NMeNle][NMeNle]RCG-NH2; thioether N-14) | > 30.5 nM | 0.158 to 4.71 nM |
| CCCC[C@H]1C(=O)N(C)[C@@H](CCCC)C(=O)N[C@@H](CCN)C(=O)N[C@H](C(=O)NCC(N)=O)CSCC(=O)N[C@@H](Cc2ccc(O)cc2)C(=O)N(C)[C@@H](C)C(=O)N[C@@H](CC(N)=O)C(=O)N2CCC[C@H]2C(=O)N[C@@H](Cc2cnc[nH]2)C(=O)N[C@@H](CC(C)C)C(=O)N2C[C@H](O)C[C@H]2C(=O)N[C@@H](Cc2c[nH]c3ccccc23)C(=O)N[C@@H](CO)C(=O)N[C@@H](Cc2c[nH]c3ccccc23)C(=O)N1C [Example 1131] | 0.385 to 6.74 nM | 0.158 to 4.71 nM |
| CCCC[C@H]1C(=O)N(C)[C@@H](CCCC)C(=O)N[C@@H](CN)C(=O)N[C@H](C(=O)NCC(N)=O)CSCC(=O)N[C@@H](Cc2ccc(O)cc2)C(=O)N(C)[C@@H](C)C(=O)N[C@@H](CC(N)=O)C(=O)N2CCC[C@H]2C(=O)N[C@@H](Cc2cnc[nH]2)C(=O)N[C@@H](CC(C)C)C(=O)N2C[C@H](O)C[C@H]2C(=O)N[C@@H](Cc2c[nH]c3ccccc23)C(=O)N[C@@H](CO)C(=O)N[C@@H](Cc2c[nH]c3ccccc23)C(=O)N1C [Example 1132] | 6.76 to 30.3 nM | 0.158 to 4.71 nM |
| CCCC[C@H]1C(=O)N(C)[C@@H](CCCC)C(=O)N[C@@H](CCCNC(=N)N)C(=O)N[C@H](C(=O)NCC(N)=O)CSCC(=O)N[C@@H](Cc2ccc(O)cc2)C(=O)N(C)[C@@H](C)C(=O)N[C@@H](CC(N)=O)C(=O)N2CCC[C@H]2C(=O)N[C@@H](Cc2cnc[nH]2)C(=O)N[C@@H](CC(C)C)C(=O)N2C[C@H](O)C[C@H]2C(=O)N[C@@H](Cc2c[nH]c3ccccc23)C(=O)N[C@@H](CCCN)C(=O)N[C@@H](Cc2c[nH]c3ccccc23)C(=O)N1C [Example 1133] ({CH2CO}-Y[NMeA]NPHL[Hyp]W[Orn]W[NMeNle][NMeNle]RCG-NH2; thioether N-14) | 6.76 to 30.3 nM | 0.158 to 4.71 nM |
| CCCC[C@H]1C(=O)N(C)[C@@H](CCCC)C(=O)N[C@@H](CCCNC(=N)N)C(=O)N[C@H](C(=O)NCC(N)=O)CSCC(=O)N[C@@H](Cc2ccc(O)cc2)C(=O)N(C)[C@@H](C)C(=O)N[C@@H](CC(N)=O)C(=O)N2CCC[C@H]2C(=O)N[C@@H](Cc2cnc[nH]2)C(=O)N[C@@H](CC(C)C)C(=O)N2C[C@H](O)C[C@H]2C(=O)N[C@@H](Cc2c[nH]c3ccccc23)C(=O)N[C@@H](CCN)C(=O)N[C@@H](Cc2c[nH]c3ccccc23)C(=O)N1C [Example 1134] ({CH2CO}-Y[NMeA]NPHL[Hyp]W[Dab]W[NMeNle][NMeNle]RCG-NH2; thioether N-14) | 6.76 to 30.3 nM | 0.158 to 4.71 nM |
| CCCC[C@H]1C(=O)N(C)[C@@H](CCCC)C(=O)N[C@@H](CCCNC(=N)N)C(=O)N[C@H](C(=O)NCC(N)=O)CSCC(=O)N[C@@H](Cc2ccc(O)cc2)C(=O)N(C)[C@@H](C)C(=O)N[C@@H](CC(N)=O)C(=O)N2CCC[C@H]2C(=O)N[C@@H](Cc2cnc[nH]2)C(=O)N[C@@H](CC(C)C)C(=O)N2C[C@H](O)C[C@H]2C(=O)N[C@@H](Cc2c[nH]c3ccccc23)C(=O)N[C@@H](CN)C(=O)N[C@@H](Cc2c[nH]c3ccccc23)C(=O)N1C [Example 1135] ({CH2CO}-Y[NMeA]NPHL[Hyp]W[Dap]W[NMeNle][NMeNle]RCG-NH2; thioether N-14) | 6.76 to 30.3 nM | 0.158 to 4.71 nM |
| CCCC[C@H]1C(=O)N(C)[C@@H](CCCC)C(=O)N[C@@H](CCCNC(=N)N)C(=O)N[C@H](C(=O)NCC(N)=O)CSCC(=O)N[C@@H](Cc2ccc(O)cc2)C(=O)N2CCC[C@H]2C(=O)N[C@@H](CC(N)=O)C(=O)N2CCC[C@H]2C(=O)N[C@@H](Cc2cnc[nH]2)C(=O)N[C@@H](CC(C)C)C(=O)N2CCC[C@H]2C(=O)N[C@@H](Cc2c[nH]c3ccccc23)C(=O)N[C@@H](CO)C(=O)N[C@@H](Cc2c[nH]c3ccccc23)C(=O)N1C [Example 1136] ({CH2CO}-YPNPHLPWSW[NMeNle][NMeNle]RCG-NH2; thioether N-14) | 6.76 to 30.3 nM | 4.78 to 72.9 nM |
| CCCC[C@H]1C(=O)N(C)[C@@H](CCCC)C(=O)N[C@@H](CCCNC(=N)N)C(=O)N[C@H](C(=O)NCC(N)=O)CSCC(=O)N[C@@H](Cc2ccc(O)cc2)C(=O)N2CCC[C@@H]2C(=O)N[C@@H](CC(N)=O)C(=O)N2CCC[C@H]2C(=O)N[C@@H](Cc2cnc[nH]2)C(=O)N[C@@H](CC(C)C)C(=O)N2CCC[C@H]2C(=O)N[C@@H](Cc2c[nH]c3ccccc23)C(=O)N[C@@H](CO)C(=O)N[C@@H](Cc2c[nH]c3ccccc23)C(=O)N1C [Example 1137] ({CH2CO}-Y[dP]NPHLPWSW[NMeNle][NMeNle]RCG-NH2; thioether N-14) | > 30.5 nM | > 74.3 nM |
| CCCC[C@H]1C(=O)N(C)[C@@H](CCCC)C(=O)N[C@@H](C)C(=O)N[C@H](C(=O)NCC(N)=O)CSCC(=O)N[C@@H](Cc2ccc(O)cc2)C(=O)N(C)[C@@H](C)C(=O)N[C@@H](CC(=O)O)C(=O)N2CCC[C@H]2C(=O)N[C@@H](CN)C(=O)N[C@@H](CC(C)C)C(=O)N2C[C@H](O)C[C@H]2C(=O)N[C@@H](Cc2c[nH]c3ccccc23)C(=O)N[C@@H](CO)C(=O)N[C@@H](Cc2c[nH]c3ccccc23)C(=O)N1C [Example 1138] ({CH2CO}-Y[NMeA]DP[Dap]L[Hyp]WSW[NMeNle][NMeNle]ACG-NH2; thioether N-14) | 6.76 to 30.3 nM | 0.158 to 4.71 nM |
| CCCC[C@H]1C(=O)N(C)[C@@H](CCCC)C(=O)N[C@@H](CCCN)C(=O)N[C@H](C(=O)NCC(N)=O)CSCC(=O)N[C@@H](Cc2ccc(O)cc2)C(=O)N(C)[C@@H](C)C(=O)N[C@@H](CC(N)=O)C(=O)N2CCC[C@H]2C(=O)N[C@@H](CN)C(=O)N[C@@H](CC(C)C)C(=O)N2C[C@H](O)C[C@H]2C(=O)N[C@@H](Cc2c[nH]c3ccccc23)C(=O)N[C@@H](CO)C(=O)N[C@@H](Cc2csc3ccccc23)C(=O)N1C [Example 1139] ({CH2CO}-Y[NMeA]NP[Dap]L[Hyp]WS[Bta][NMeNle][NMeNle][Orn]CG-NH2; thioether N-14) | 0.385 to 6.74 nM | 0.158 to 4.71 nM |
| CCCC[C@H]1C(=O)N(C)[C@@H](CCCC)C(=O)N[C@@H](C)C(=O)N[C@H](C(=O)NCC(N)=O)CSCC(=O)N[C@@H](Cc2ccc(O)cc2)C(=O)N(C)[C@@H](C)C(=O)N[C@@H](CC(=O)O)C(=O)N2CCC[C@H]2C(=O)N[C@@H](Cc2cnc[nH]2)C(=O)N[C@@H](CCCN)C(=O)N2C[C@H](O)C[C@H]2C(=O)N[C@@H](Cc2c[nH]c3ccccc23)C(=O)N[C@@H](CO)C(=O)N[C@@H](Cc2c[nH]c3ccccc23)C(=O)N1C [Example 1140] ({CH2CO}-Y[NMeA]DPH[Orn][Hyp]WSW[NMeNle][NMeNle]ACG-NH2; thioether N-14) | 0.385 to 6.74 nM | 0.158 to 4.71 nM |
| CCCC[C@H]1C(=O)N(C)[C@@H](CCCC)C(=O)N[C@@H](CCCNC(=N)N)C(=O)N[C@H](C(=O)NCC(=O)O)CSCC(=O)N[C@@H](Cc2ccc(O)cc2)C(=O)N(C)[C@@H](C)C(=O)N[C@@H](CC(N)=O)C(=O)N2CCC[C@H]2C(=O)N[C@@H](CN)C(=O)N[C@@H](CC(C)C)C(=O)N2C[C@@H](O)C[C@H]2C(=O)N[C@@H](Cc2c[nH]c3ccccc23)C(=O)N[C@@H](CO)C(=O)N[C@@H](Cc2csc3ccccc23)C(=O)N1C [Example 1141] ({CH2CO}-Y[NMeA]NP[Dap]L[cisHyp]WS[Bta][NMeNle][NMeNle]RCG-OH; thioether N-14) | 0.385 to 6.74 nM | 0.158 to 4.71 nM |
| CCCC[C@H]1C(=O)N(C)[C@@H](CCCC)C(=O)N[C@@H](CCCNC(=N)N)C(=O)N[C@H](C(=O)NCC(N)=O)CSCC(=O)N[C@@H](Cc2ccc(O)cc2)C(=O)N(C)[C@@H](C)C(=O)N[C@@H](CC(N)=O)C(=O)N2CCC[C@H]2C(=O)N[C@@H](C)C(=O)N[C@@H](CC(C)C)C(=O)N2C[C@@H](O)C[C@H]2C(=O)N[C@@H](Cc2c[nH]c3ccccc23)C(=O)N[C@@H](CO)C(=O)N[C@@H](Cc2c[nH]c3ccccc23)C(=O)N1C [Example 1142] ({CH2CO}-Y[NMeA]NPAL[cisHyp]WSW[NMeNle][NMeNle]RCG-NH2; thioether N-14) | 6.76 to 30.3 nM | 4.78 to 72.9 nM |
| CCCC[C@H]1C(=O)N(C)[C@@H](CCCC)C(=O)N[C@@H](CCCNC(=N)N)C(=O)N[C@H](C(=O)NCC(N)=O)CSCC(=O)N[C@@H](Cc2ccc(O)cc2)C(=O)N(C)[C@@H](C)C(=O)N[C@@H](CN)C(=O)N2CCC[C@H]2C(=O)N[C@@H](C)C(=O)N[C@@H](CC(C)C)C(=O)N2C[C@@H](O)C[C@H]2C(=O)N[C@@H](Cc2c[nH]c3ccccc23)C(=O)N[C@@H](CO)C(=O)N[C@@H](Cc2c[nH]c3ccccc23)C(=O)N1C [Example 1143] ({CH2CO}-Y[NMeA][Dap]PAL[cisHyp]WSW[NMeNle][NMeNle]RCG-NH2; thioether N-14) | > 30.5 nM | > 74.3 nM |
